According to patent US20230242473A1, “THYROMIMETICS” (Autobahn Therapeutics, Inc., priority 2020, published 2023):
pEC50: −log10 of the molar value.

Key:
TRβ = biological target: T1, TRβ (Homo sapiens, UniProt P10828); assay: Thyroid-hormone reporter-gene assay, TRβ (Gal4 hybrid, luciferase); assay type: cell-based; conditions: for pEC50: HEK293-derived reporter cells, 24 hr treatment, luciferase readout; for T3-SI, selectivity index (SI) calculated as EC50 (TRα)/EC50 (TRβ): TRα vs TRβ reporter-gene assays
T1 construct: expressed in transfected cells; host or cells: HEK293-derived reporter cell line
T1 sequence (P10828 217-461 limits assumed): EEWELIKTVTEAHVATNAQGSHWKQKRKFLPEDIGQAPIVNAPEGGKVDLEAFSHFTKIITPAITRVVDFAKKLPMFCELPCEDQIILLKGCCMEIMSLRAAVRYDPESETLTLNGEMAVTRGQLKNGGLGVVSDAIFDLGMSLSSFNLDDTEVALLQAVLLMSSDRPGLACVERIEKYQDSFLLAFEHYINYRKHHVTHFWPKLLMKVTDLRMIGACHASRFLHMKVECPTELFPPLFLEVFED
Method: (§1) Compounds were tested for thyroid-hormone receptor activity using TR reporter-gene assays. Reporter cells used in the assays express a TR-receptor hybrid (either TRα or TRO) in which the native N-terminal DNA binding domain (DBD) has been replaced with that of the yeast Gal4 DBD. The reporter gene, firefly luciferase, is functionally linked to the Gal4 upstream activation sequence (UAS). Both cell lines were derived from human embryonic kidney (HEK293).
(§2) Step 1: A suspension of reporter cells was prepared in cell recovery medium containing 10% charcoal-stripped FBS, and dispensed into assay plates. The plates were pre-incubated for 6 hours in a cell culture incubator (37° C./5% CO2/85% humidity).
(§3) These intermediate stocks were subsequently diluted directly into compound screening medium containing 10% charcoal-stripped FBS to generate “2×-concentration” treatment media (containing 0.2, 0.4 or 0.8% DMSO).
(§4) Step 3: At the end of the pre-incubation period, culture media were discarded from the assay plates, and all wells received 100 μl of compound screening medium. 100 μl of each of the previously prepared “2×-concentration” treatment media were dispensed into duplicate assay wells, thereby achieving the desired final treatment concentrations. The final concentration of DMSO in all assay wells was 0.1, 0.2 or 0.4%. Assay plates were incubated for 24 hr in a cell culture incubator (37° C./5% CO2/85% humidity).
(§5) Step 4: At the 24 h assay endpoint, treatment media were discarded and 100 µl/well of luciferase detection reagent was added. Relative luminometer units (RLUs) were quantified from each assay well.

TRα = biological target: T2, TRα (Homo sapiens, UniProt P10827); assay: Thyroid-hormone reporter-gene assay, TRα (Gal4 hybrid, luciferase); assay type: cell-based; conditions: HEK293-derived reporter cells, 24 hr treatment, luciferase readout
T2 construct: expressed in transfected cells; host or cells: HEK293-derived reporter cell line
T2 sequence (P10827 128-410 isoform P10827-2 limits assumed): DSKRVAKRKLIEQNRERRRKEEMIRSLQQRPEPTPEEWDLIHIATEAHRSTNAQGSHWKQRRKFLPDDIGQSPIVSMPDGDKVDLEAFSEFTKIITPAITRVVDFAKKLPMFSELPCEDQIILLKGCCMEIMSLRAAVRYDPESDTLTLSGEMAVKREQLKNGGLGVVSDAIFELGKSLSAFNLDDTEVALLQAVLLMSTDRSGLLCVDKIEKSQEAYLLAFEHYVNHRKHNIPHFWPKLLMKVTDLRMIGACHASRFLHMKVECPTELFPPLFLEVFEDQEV
Method: as §1, §2, §3, §4, §5

Row | SMILES | pEC50 (TRβ) | T3-SI, selectivity index (SI) calculated as EC50 (TRα)/EC50 (TRβ) (TRβ) | pEC50 (TRα)
1 | CC(C)c1c(O)ccc(Cc2ccc(OCC(=O)O)c3c2CCC3)c1F [Compound 2, 2-((7-(2-fluoro-4-hydroxy-3-isopropylbenzyl)-2,3-dihydro-1H-inden-4-yl)oxy)acetic acid] | 6.00 to 7.00 | ++ (++3X<T3−SI≤30X) | < 6.00
2 | CC(C)c1cc(Cc2cc(F)c(OCC(=O)O)c(F)c2Cl)ccc1O [Compound 38, 2-(3-chloro-2,6-difluoro-4-(4-hydroxy-3-isopropylbenzyl)phenoxy)acetic acid] | < 6.00 | – | –
3 | Cc1cc(OCC(=O)O)c2c(c1Cc1ccc(O)c(C(C)C)c1)CCC2 [Compound 6, 2-((7-(4-hydroxy-3-isopropylbenzyl)-6-methyl-2,3-dihydro-1H-inden-4-yl)oxy)acetic acid] | 7.00 to 8.00 | ++ (++3X<T3−SI≤30X) | 6.00 to 7.00
4 | Cc1cc(OCC(=O)O)c2c(c1Cc1ccc(O)c(C(C)c3ccc(F)cc3)c1)CCC2 (stereo not drawn) [Compound 8, 2-((7-(3-(1-(4-fluorophenyl)ethyl)-4-hydroxybenzyl)-6-methyl-2,3-dihydro-1H-inden-4-yl)oxy)acetic acid] | > 8.00 | ++ (++3X<T3−SI≤30X) | 7.00 to 8.00
5 | Cc1cc(OCC(=O)O)c2c(c1Cc1ccc(O)c(C(C)C)c1F)CCC2 [Compound 10, 2-((7-(2-fluoro-4-hydroxy-3-isopropylbenzyl)-6-methyl-2,3-dihydro-1H-inden-4-yl)oxy)acetic acid] | > 8.00 | ++ (++3X<T3−SI≤30X) | 7.00 to 8.00
6 | CC(C)c1cc(Cc2cc(F)c(OCC(=O)O)c3c2CCC3)ccc1O [Compound 16, 2-((5-fluoro-7-(4-hydroxy-3-isopropylbenzyl)-2,3-dihydro-1H-inden-4-yl)oxy)acetic acid] | < 6.00 | ++ (++3X<T3−SI≤30X) | < 6.00
7 | CC(C)c1c(O)ccc(Cc2ccc(OCC(=O)O)c3c2C(C)CC3)c1F (stereo not drawn) [Compound 4, 2-((7-(2-fluoro-4-hydroxy-3-isopropylbenzyl)-1-methyl-2,3-dihydro-1H-inden-4-yl)oxy)acetic acid] | < 6.00 | – | < 6.00
8 | C=C(C)c1cc(OCC(=O)O)ccc1Cc1ccc(O)c(C(C)C)c1F [Compound 23, 2-(4-(2-fluoro-4-hydroxy-3-isopropylbenzyl)-3-(prop-1-en-2-yl)phenoxy)acetic acid] | 6.00 to 7.00 | ++ (++3X<T3−SI≤30X) | < 6.00
9 | CC(C)c1cc(Cc2cc(F)c(OCC(=O)O)cc2C(F)(F)F)ccc1O [Compound 18, 2-(2-fluoro-4-(4-hydroxy-3-isopropylbenzyl)-5-(trifluoromethyl)phenoxy)acetic acid] | < 6.00 | + (+T3−SI≤3X) | < 6.00
10 | CC(C)c1cc(OCC(=O)O)ccc1Cc1ccc(O)c(C(C)C)c1F [Compound 25, 2-(4-(2-fluoro-4-hydroxy-3-isopropylbenzyl)-3-isopropylphenoxy)acetic acid] | 7.00 to 8.00 | ++ (++3X<T3−SI≤30X) | 6.00 to 7.00
11 | CC(C)c1c(O)ccc(Cc2cc(F)c(OCC(=O)O)cc2Cl)c1F [Compound 29, 2-(5-chloro-2-fluoro-4-(2-fluoro-4-hydroxy-3-isopropylbenzyl)phenoxy)acetic acid] | 6.00 to 7.00 | +++ (+++T3−SI>30X) | < 6.00
12 | CC(C)c1cc(Cc2cc(F)c(OCC(=O)O)cc2C(C)C)ccc1O [Compound 36, 2-(2-fluoro-4-(4-hydroxy-3-isopropylbenzyl)-5-isopropylphenoxy)acetic acid] | 6.00 to 7.00 | ++ (++3X<T3−SI≤30X) | 6.00 to 7.00
